Test results reported in US5112740A, “Carbon dioxide assay for body fluids comprising carbonic anhydrase” (Eastman Kodak Company, priority 1989, dated 1992).

Assays:
[1] = tested on: carbonic anhydrase; test: Carbonic anhydrase inhibitors tested against hemolysate bias on the enzymatic CO2 slide (Example 3); assay type: biochemical, human; conditions: for Enzymatic Bicarbonate With Hemolysate: hemoglobin 200 mg/dL, 1 hour room temperature; for Bias: with vs without hemolysate (hemoglobin 200 mg/dL)
Description: (§1) A stock hemolysate solution was prepared by collecting fresh blood from suitable human donors. The erythrocytes of the blood was pooled, and then washed with saline four times. The erythrocytes were then lysed by five cycles of freezing to -70° C. and thawing at 37° C. The resulting hemolysate was filtered through Whatman No. 1 (Whatman Ltd. UK) filter paper. Hemoglobin concentration in mg/dL was determined by the method of Harboe described in Sca. J. Clinical Lab. Invest. […] The concentration of hemoglobin is directly related to the level of carbonic anhydrase in the hemolysate stock solution.
The enzymatic values for CO2 were determined on the test samples with dry-chemistry slides on an […] Clinical Chemistry Analyzer (available from Eastman Kodak Company, Rochester, N.Y.). The principle of the assay is as represented above by reaction series (1) and (5). […] It had the following format:
A stock solution of 50 mmol/L bicarbonate was prepared in 100 mmol/L tricine buffer (pH 8.0).

[2] = tested on: carbonic anhydrase; conditions: solution assay
[3] = tested on: carbonic anhydrase
Description: Reference values for CO2 (Table I) on test samples were determined using a thermal conductivity procedure on the Corning 965 carbon dioxide analyzer. The technology of the reference procedure is such that it is not affected by carbonic anhydrase.
The enzymatic values for CO2 were determined on the test samples with dry-chemistry slides on an [sequence] Clinical Chemistry Analyzer (available from Eastman Kodak Company, Rochester, N.Y.). The principle of the assay is as represented above by reaction series (1) and (5). […] It had the following format:
A stock solution of 50 mmol/L bicarbonate was prepared in 100 mmol/L tricine buffer (pH 8.0). The stock bicarbonate was diluted with either (a) the buffer or (b) the stock hemolysate and the buffer to give test solutions of about 25 mmol/L HCO3^- and varying concentrations of hemoglobin.

[4] = tested on: carbonic anhydrase; conditions: acetazolamide included in the enzymatic CO2 dry chemistry element
Description: as §1

[5] = final inhibitor concentration 20.0 mmol/L
[6] = final inhibitor concentration 1.0 mmol/L
[7] = final inhibitor concentration 2.5 mmol/L
[8] = final inhibitor concentration 5.0 mmol/L
[9] = final inhibitor concentration 2.0 mmol/L

CC(N)C(=O)O (racemic) [DL-Alanine]
Enzymatic Bicarbonate With Hemolysate [1, 5]: 14.3 mmol/L | Bias [1, 5]: -8.6 mmol/L

CC(=O)Nc1nnc(S(N)(=O)=O)s1 [Acetazolamide]
Minimum concentration effective as an inhibitor [2]: at least 0.1 mmol/L | Effect on bias seen with freshly prepared hemolysates ([3]; acetazolamide included in the enzymatic CO2 dry chemistry element): significantly reduces the bias | Effectiveness when included in the reagent layer ([3]; reagent layer compared with spreading layer): equally as effective | Effect on bias seen with hemolyzed and apparently non-hemolysed patient samples [4]: effectively eliminates the bias | Effectiveness in eliminating the negative bias of the enzymatic CO2 assay ([1]; among the carbonic anhydrase inhibitors tested): most effective | Enzymatic Bicarbonate With Hemolysate [1, 6]: 22.9 mmol/L | Bias [1, 6]: -0.3 mmol/L

[N-]=[N+]=[N-] [Azide]
Enzymatic Bicarbonate With Hemolysate [1, 7]: 16.5 mmol/L | Bias [1, 7]: -6.8 mmol/L

O[C@H](CS)[C@@H](O)CS [Dithioerythritol]
Enzymatic Bicarbonate With Hemolysate [1, 8]: 17.5 mmol/L | Bias [1, 8]: -5.8 mmol/L

O=C(O)CN(CCN(CC(=O)O)CC(=O)O)CC(=O)O [EDTA, Ethylenediaminetetraacetic acid]
Enzymatic Bicarbonate With Hemolysate [1, 8]: 14.7 mmol/L | Bias [1, 8]: -8.1 mmol/L

NCC(=O)O [Glycine]
Enzymatic Bicarbonate With Hemolysate [1, 5]: 14.3 mmol/L | Bias [1, 5]: -8.1 mmol/L

O=C(O)CN(CCO)CCN(CC(=O)O)CC(=O)O [HEDTA, NHydroxyethylethylenediaminetriacetic acid]
Enzymatic Bicarbonate With Hemolysate [1, 8]: 15.7 mmol/L | Bias [1, 8]: -7.6 mmol/L

Nc1ccc(S(N)(=O)=O)cc1 [Sulfanilamide]
Enzymatic Bicarbonate With Hemolysate [1, 9]: 14.9 mmol/L | Bias [1, 9]: -7.9 mmol/L

Nc1ccc(S(=O)(=O)Nc2nccs2)cc1 [Sulfathiazole]
Enzymatic Bicarbonate With Hemolysate [1, 9]: 15.8 mmol/L | Bias [1, 9]: -8.4 mmol/L

N#CS [Thiocyanate]
Enzymatic Bicarbonate With Hemolysate [1, 7]: 15.3 mmol/L | Bias [1, 7]: -6.7 mmol/L
